From patent US20260130395A1, “Water Dispersible Botanical Compositions” (Aquila Black Limited, priority 2021, published 2026)

Key:
[1] = Stability of cannabinoid entourage and Vitamin E components of the powder concentrate by LCMSMS; type: physicochemical; settings: powder stored at 21-25° C.
Procedure: At each time period, 0.05 g of powder was dissolved in 10 ml-15 of ethanol, diluted to fall within the analytical range, and injected into the LCMSMS for analysis.

[2] = Stability of cannabinoid compounds and Vitamin E components in Beverage 1 (AB White) by LCMSMS; type: physicochemical; settings: AB White stored at 8° C.

C=C(C)[C@@H]1CCC(C)=C[C@H]1c1c(O)cc(CCC)cc1O [CBDV, cannabidivarin]
Stability of Plant-Derived Cannabinoid Compounds in Powder Concentrate ([1]; 0 days): 0.050 mg/g powder
Stability of Plant-Derived Cannabinoid Compounds in Powder Concentrate ([1]; 1 days): 0.051 mg/g powder
Stability of Plant-Derived Cannabinoid Compounds in Powder Concentrate ([1]; 2 days): 0.051 mg/g powder
Stability of Plant-Derived Cannabinoid Compounds in Powder Concentrate ([1]; 3 days): 0.048 mg/g powder
Stability of Plant-Derived Cannabinoid Compounds in Powder Concentrate ([1]; 5 days): 0.050 mg/g powder
Stability of Plant-Derived Cannabinoid Compounds in Powder Concentrate ([1]; 8 days): 0.051 mg/g powder
Stability of Plant-Derived Cannabinoid Compounds in Powder Concentrate ([1]; 9 days): 0.049 mg/g powder
Stability of Plant-Derived Cannabinoid Compounds in Powder Concentrate ([1]; 10 days): 0.050 mg/g powder
Stability of Plant-Derived Cannabinoid Compounds in Powder Concentrate ([1]; 11 days): 0.051 mg/g powder
Stability of Plant-Derived Cannabinoid Compounds in Powder Concentrate ([1]; 12 days): 0.051 mg/g powder
Stability of Plant-Derived Cannabinoid Compounds in Powder Concentrate ([1]; 15 days): 0.050 mg/g powder
Stability of Plant-Derived Cannabinoid Compounds in Powder Concentrate ([1]; 16 days): 0.049 mg/g powder
Stability of Plant-Derived Cannabinoid Compounds in Powder Concentrate ([1]; 17 days): 0.051 mg/g powder
Stability of Plant-Derived Cannabinoid Compounds in Powder Concentrate ([1]; 18 days): 0.051 mg/g powder
Stability of Plant-Derived Cannabinoid Compounds in Powder Concentrate ([1]; 19 days): 0.048 mg/g powder
Stability of Plant-Derived Cannabinoid Compounds in Powder Concentrate ([1]; 22 days): 0.049 mg/g powder
Stability of Plant-Derived Cannabinoid Compounds in Powder Concentrate ([1]; 23 days): 0.050 mg/g powder
Stability of Plant-Derived Cannabinoid Compounds in Powder Concentrate ([1]; 24 days): 0.051 mg/g powder
Stability of Plant-Derived Cannabinoid Compounds in Powder Concentrate ([1]; 25 days): 0.052 mg/g powder
Stability of Plant-Derived Cannabinoid Compounds in Powder Concentrate ([1]; 26 days): 0.050 mg/g powder
Stability of Plant-Derived Cannabinoid Compounds in Powder Concentrate ([1]; 29 days): 0.049 mg/g powder
Stability of Plant-Derived Cannabinoid Compounds in Powder Concentrate ([1]; 30 days): 0.051 mg/g powder
Stability of Plant-Derived Cannabinoid Compounds in Powder Concentrate ([1]; 60 days): 0.050 mg/g powder
Stability of Plant-Derived Cannabinoid Compounds in Powder Concentrate ([1]; 90 days): 0.050 mg/g powder
Stability of Plant-Derived Cannabinoid Compounds in Powder Concentrate ([1]; 120 days): 0.050 mg/g powder
Stability of Plant-Derived Cannabinoid Compounds in Powder Concentrate ([1]; 150 days): 0.051 mg/g powder
Stability of Plant-Derived Cannabinoid Compounds in Powder Concentrate ([1]; 180 days): 0.050 mg/g powder
Stability of Plant-Derived Cannabinoid Compounds in Powder Concentrate ([1]; 210 days): 0.049 mg/g powder
Stability of Plant-Derived Cannabinoid Compounds in Powder Concentrate ([1]; 240 days): 0.052 mg/g powder
Stability of Plant-Derived Cannabinoid Compounds in Powder Concentrate ([1]; 270 days): 0.051 mg/g powder
Stability of Plant-Derived Cannabinoid Compounds in Powder Concentrate ([1]; 300 days): 0.049 mg/g powder
Stability of Plant-Derived Cannabinoid Compounds in Powder Concentrate ([1]; 330 days): 0.052 mg/g powder
Stability of Plant-Derived Cannabinoid Compounds in Powder Concentrate ([1]; 360 days): 0.050 mg/g powder
Stability of Plant-Derived Cannabinoid Compounds in Powder Concentrate ([1]; 390 days): 0.049 mg/g powder
Stability of Plant-Derived Cannabinoid Compounds in Powder Concentrate ([1]; 420 days): 0.051 mg/g powder
Stability of Plant-Derived Cannabinoid Compounds in Powder Concentrate ([1]; 450 days): 0.049 mg/g powder
Stability of Plant-Derived Cannabinoid Compounds in Powder Concentrate ([1]; 480 days): 0.051 mg/g powder
Stability of Plant-Derived Cannabinoid Compounds in Powder Concentrate ([1]; 510 days): 0.049 mg/g powder
Stability of Plant-Derived Cannabinoid Compounds in Powder Concentrate ([1]; 540 days): 0.052 mg/g powder
Stability of Plant-Derived Cannabinoid Compounds in Powder Concentrate ([1]; 570 days): 0.048 mg/g powder
Stability of Plant-Derived Cannabinoid Compounds in AB White, 8° C. ([2]; 0 days): 0.150 µg/mL
Stability of Plant-Derived Cannabinoid Compounds in AB White, 8° C. ([2]; 1 days): 0.146 µg/mL
Stability of Plant-Derived Cannabinoid Compounds in AB White, 8° C. ([2]; 2 days): 0.147 µg/mL
Stability of Plant-Derived Cannabinoid Compounds in AB White, 8° C. ([2]; 3 days): 0.146 µg/mL
Stability of Plant-Derived Cannabinoid Compounds in AB White, 8° C. ([2]; 5 days): 0.147 µg/mL
Stability of Plant-Derived Cannabinoid Compounds in AB White, 8° C. ([2]; 8 days): 0.148 µg/mL
Stability of Plant-Derived Cannabinoid Compounds in AB White, 8° C. ([2]; 9 days): 0.146 µg/mL
Stability of Plant-Derived Cannabinoid Compounds in AB White, 8° C. ([2]; 10 days): 0.148 µg/mL
Stability of Plant-Derived Cannabinoid Compounds in AB White, 8° C. ([2]; 11 days): 0.150 µg/mL
Stability of Plant-Derived Cannabinoid Compounds in AB White, 8° C. ([2]; 12 days): 0.150 µg/mL
Stability of Plant-Derived Cannabinoid Compounds in AB White, 8° C. ([2]; 15 days): 0.150 µg/mL
Stability of Plant-Derived Cannabinoid Compounds in AB White, 8° C. ([2]; 16 days): 0.148 µg/mL
Stability of Plant-Derived Cannabinoid Compounds in AB White, 8° C. ([2]; 17 days): 0.146 µg/mL
Stability of Plant-Derived Cannabinoid Compounds in AB White, 8° C. ([2]; 18 days): 0.146 µg/mL
Stability of Plant-Derived Cannabinoid Compounds in AB White, 8° C. ([2]; 19 days): 0.149 µg/mL
Stability of Plant-Derived Cannabinoid Compounds in AB White, 8° C. ([2]; 22 days): 0.149 µg/mL
Stability of Plant-Derived Cannabinoid Compounds in AB White, 8° C. ([2]; 23 days): 0.149 µg/mL
Stability of Plant-Derived Cannabinoid Compounds in AB White, 8° C. ([2]; 24 days): 0.147 µg/mL
Stability of Plant-Derived Cannabinoid Compounds in AB White, 8° C. ([2]; 25 days): 0.149 µg/mL
Stability of Plant-Derived Cannabinoid Compounds in AB White, 8° C. ([2]; 26 days): 0.152 µg/mL
